# Literature values in patent US7045126B2, “Histone deacetylase-8 proteins, nucleic acids, and methods for use” (Applera Corporation, priority 1999, dated 2006).
# Columns and labels:
# tumor = tumor bearing nude mice
# [1] = system: acute promyelocytic leukemia (APL); details: incl. retinoic acid resistant forms
# cell cycle = details: variety of systems
structure (smiles),measurement,setting,value
Nc1ccccc1NC(=O)c1ccc(CNC(=O)OCc2cccnc2)cc1 [MS-27275],inhibition of tumor growth,tumor,demonstrates efficacy in inhibiting tumor growth
same,histone hyperacetylation,histones,induces histone hyperacetylation
CCCC(=O)[O-].[Na+] [sodium butyrate],therapeutic use to target transcription in APL,[1],successful even in retinoic acid resistant forms of the disease
CC(/C=C/C(=O)NO)=C\[C@@H](C)C(=O)c1ccc(N(C)C)cc1 [trichostatin A],cell cycle arrest and/or differentiation,cell cycle,induce cell cycle arrest and/or differentiation
